According to US20170050957A1, “4-AMINO-6-(HETEROCYCLIC)PICOLINATES AND 6-AMINO-2-(HETEROCYCLIC)PYRIMIDINE-4-CARBOXYLATES AND THEIR USE AS HERBICIDES” (Dow AgroSciences LLC, priority 2013, published 2017):
Like-named read-outs stand apart in the source and are kept apart here.

What was measured:
[1] = test system: Key Grass and Sedge Weeds as well as Grass Crops; test: Post-emergent Test II herbicidal activity (Table 16); assay type: in vivo; conditions: post-emergence, 336 h, 14 days after application; for pest or weed control at 35 g/ha: 35 g ai/ha; for pest or weed control at 70 g/ha: 70 g ai/ha; for pest or weed control at 140 g/ha: 140 g ai/ha
Procedure, shortened: (§1)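 Plants grown in greenhouse (~15 h photoperiod, 23-29 °C day, 22-28 °C night) to first or second true leaf stage, then sprayed post-emergence at 187 L/ha with a high rate and 1/2×, 1/4×, 1/8× and 1/16× dilutions. Injury scored visually after 14 d, 0-100% versus untreated plants.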

[2] = test system: Key Broadleaf Weed and Crop Species; test: Post-emergent Test II herbicidal activity (Table 15); assay type: in vivo; conditions: post-emergence, 336 h, 14 d; for pest or weed control at 35 g/ha: 35 g ai/ha; for pest or weed control at 70 g/ha: 70 g ai/ha; for pest or weed control at 140 g/ha: 140 g ai/ha
Procedure, shortened: as §1

[3] = Cyperus esculentus, yellow nutsedge (Cyperus esculentus), read-out: Visual Growth Reduction (%) 14 Days After Application CYPES
[4] = Echinochloa crus-galli, barnyardgrass (Echinochloa crus-galli), read-out: Visual Growth Reduction (%) 14 Days After Application ECHCG
[5] = Oryza sativa, rice (Oryza sativa), read-out: Visual Growth Reduction (%) 14 Days After Application ORYSA
[6] = Setaria faberi, giant foxtail (Setaria faberi), read-out: Visual Growth Reduction (%) 14 Days After Application SETFA
[7] = Triticum aestivum, wheat, spring (Triticum aestivum), read-out: Visual Growth Reduction (%) 14 Days After Application TRZAS
[8] = Zea mays, maize, corn (Zea mays), read-out: Visual Growth Reduction (%) 14 Days After Application ZEAMX
[9] = Abutilon theophrasti, velvetleaf (Abutilon theophrasti), read-out: Visual Growth Reduction (%) 14 Days After Application, ABUTH
[10] = Amaranthus retroflexus, redroot pigweed (Amaranthus retroflexus), read-out: Visual Growth Reduction (%) 14 Days After Application, AMARE
[11] = Brassica napus, oilseed rape, canola (Brassica napus), read-out: Visual Growth Reduction (%) 14 Days After Application, BRSNN
[12] = Chenopodium album, lambsquarters (Chenopodium album), read-out: Visual Growth Reduction (%) 14 Days After Application, CHEAL
[13] = Euphorbia heterophylla, wild poinsettia (Euphorbia heterophylla), read-out: Visual Growth Reduction (%) 14 Days After Application, EPHHL
[14] = Helianthus annuus, sunflower (Helianthus annuus), read-out: Visual Growth Reduction (%) 14 Days After Application, HELAN

Row | SMILES | pest or weed control at 35 g/ha [1, 3] | pest or weed control at 70 g/ha [1, 3] | pest or weed control at 140 g/ha [1, 3] | pest or weed control at 35 g/ha [1, 4] | pest or weed control at 70 g/ha [1, 4] | pest or weed control at 140 g/ha [1, 4] | pest or weed control at 35 g/ha [1, 5] | pest or weed control at 70 g/ha [1, 5] | pest or weed control at 140 g/ha [1, 5] | pest or weed control at 35 g/ha [1, 7] | pest or weed control at 70 g/ha [1, 7] | pest or weed control at 140 g/ha [1, 7] | pest or weed control at 35 g/ha [1, 8] | pest or weed control at 70 g/ha [1, 8] | pest or weed control at 140 g/ha [1, 8] | melting point | pest or weed control at 35 g/ha [2, 9] | pest or weed control at 70 g/ha [2, 9] | pest or weed control at 140 g/ha [2, 9] | pest or weed control at 35 g/ha [2, 10] | also measured
1 | COc1c(N)nc(-c2ccc3sccc3c2)nc1C(=O)O [Compound 3.09] | 0 to 29% | 0 to 29% | 0 to 29% | 85 to 94% | 85 to 94% | 85 to 94% | 0 to 29% | 0 to 29% | 0 to 29% | 60 to 74% | 75 to 84% | 85 to 94% | 60 to 74% | 75 to 84% | 85 to 94% | 137 to 139 °C | 0 to 29% | 0 to 29% | 45 to 59% | 30 to 44% | pest or weed control at 35 g/ha [1, 6]: 0 to 29%; pest or weed control at 70 g/ha [1, 6]: 0 to 29%; pest or weed control at 140 g/ha [1, 6]: 0 to 29%; pest or weed control at 70 g/ha [2, 10]: 75 to 84%; pest or weed control at 140 g/ha [2, 10]: 85 to 94%; pest or weed control at 35 g/ha [2, 11]: 45 to 59%; pest or weed control at 70 g/ha [2, 11]: 85 to 94%; pest or weed control at 140 g/ha [2, 11]: 95 to 100%; pest or weed control at 35 g/ha [2, 12]: 85 to 94%; pest or weed control at 70 g/ha [2, 12]: 85 to 94%; pest or weed control at 140 g/ha [2, 12]: 95 to 100%; pest or weed control at 35 g/ha [2, 13]: 95 to 100%; pest or weed control at 70 g/ha [2, 13]: 95 to 100%; pest or weed control at 140 g/ha [2, 13]: 95 to 100%; pest or weed control at 35 g/ha [2, 14]: 60 to 74%; pest or weed control at 70 g/ha [2, 14]: 75 to 84%; pest or weed control at 140 g/ha [2, 14]: 85 to 94%
2 | Nc1c(F)c(-c2ccc3ccsc3c2)nc(C(=O)O)c1Cl [Compound 3.13] | 0 to 29% | 0 to 29% | 0 to 29% | 60 to 74% | 60 to 74% | 75 to 84% | 0 to 29% | 0 to 29% | 0 to 29% | 0 to 29% | 0 to 29% | 0 to 29% | 60 to 74% | 60 to 74% | 60 to 74% | 165 to 167 °C | 0 to 29% | 0 to 29% | 75 to 84% | 95 to 100% | pest or weed control at 70 g/ha [2, 10]: 95 to 100%; pest or weed control at 140 g/ha [2, 10]: 95 to 100%; pest or weed control at 35 g/ha [2, 11]: 0 to 29%; pest or weed control at 70 g/ha [2, 11]: 0 to 29%; pest or weed control at 140 g/ha [2, 11]: 60 to 74%; pest or weed control at 35 g/ha [2, 12]: 85 to 94%; pest or weed control at 70 g/ha [2, 12]: 95 to 100%; pest or weed control at 140 g/ha [2, 12]: 95 to 100%; pest or weed control at 35 g/ha [2, 13]: 0 to 29%; pest or weed control at 70 g/ha [2, 13]: 0 to 29%; pest or weed control at 140 g/ha [2, 13]: 60 to 74%; pest or weed control at 35 g/ha [2, 14]: 85 to 94%; pest or weed control at 70 g/ha [2, 14]: 85 to 94%; pest or weed control at 140 g/ha [2, 14]: 85 to 94%
